Measurements published in US12187723B2 (BRISTOL-MYERS SQUIBB COMPANY, priority 2019, dated 2025).

What was measured:
[1] = target: T1, human TLR7 (Homo sapiens, UniProt Q9NYK1); test: TLR7 inhibition reporter assay (HEK-Blue SEAP); assay type: cell-based; conditions: HEK-Blue cells overexpressing human TLR7, gardiquimod 7.5 μM, 22 hour incubation
T1 construct: host or cells: HEK-Blue cells
T1 sequence (Q9NYK1 27-1049): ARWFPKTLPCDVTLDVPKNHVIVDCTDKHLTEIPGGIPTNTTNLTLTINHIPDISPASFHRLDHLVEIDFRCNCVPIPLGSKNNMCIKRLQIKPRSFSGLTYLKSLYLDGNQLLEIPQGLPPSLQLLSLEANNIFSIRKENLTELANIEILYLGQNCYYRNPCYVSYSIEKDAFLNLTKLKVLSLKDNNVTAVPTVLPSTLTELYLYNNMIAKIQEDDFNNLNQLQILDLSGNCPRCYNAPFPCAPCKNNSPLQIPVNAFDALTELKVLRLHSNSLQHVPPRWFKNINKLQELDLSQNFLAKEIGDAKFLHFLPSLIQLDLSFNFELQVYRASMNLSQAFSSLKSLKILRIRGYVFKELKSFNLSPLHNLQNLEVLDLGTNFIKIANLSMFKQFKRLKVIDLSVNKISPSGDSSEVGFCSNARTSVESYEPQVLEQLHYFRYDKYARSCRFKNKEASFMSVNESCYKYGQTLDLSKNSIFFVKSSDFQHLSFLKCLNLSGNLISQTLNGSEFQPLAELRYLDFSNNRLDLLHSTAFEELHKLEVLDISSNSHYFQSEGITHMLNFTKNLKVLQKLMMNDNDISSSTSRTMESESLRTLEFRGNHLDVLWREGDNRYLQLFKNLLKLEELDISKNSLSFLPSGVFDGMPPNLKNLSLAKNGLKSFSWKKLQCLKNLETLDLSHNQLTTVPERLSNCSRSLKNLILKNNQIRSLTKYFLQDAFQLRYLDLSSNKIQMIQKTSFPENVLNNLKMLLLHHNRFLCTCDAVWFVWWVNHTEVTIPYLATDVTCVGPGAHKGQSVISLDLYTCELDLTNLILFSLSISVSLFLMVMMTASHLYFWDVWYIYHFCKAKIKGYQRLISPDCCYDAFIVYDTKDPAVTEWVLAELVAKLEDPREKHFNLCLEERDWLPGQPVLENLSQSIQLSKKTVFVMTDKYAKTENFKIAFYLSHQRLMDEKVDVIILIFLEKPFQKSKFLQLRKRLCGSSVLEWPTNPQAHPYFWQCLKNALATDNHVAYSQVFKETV
Procedure, shortened: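 SEAP readout via HEK-Blue Detection medium after 22 h at 37 °C, 5% CO2 defines inhibition, normalized between agonist-plus-DMSO wells and a reference inhibitor. Compound dose range 0.05 nM–50 μM; TLR7 cells at 15,000/well (gardiquimod), TLR8 at 20,000/well (R848).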

[2] = target: T2, human TLR8 (Homo sapiens, UniProt Q9NR97); test: TLR8 inhibition reporter assay (HEK-Blue SEAP); assay type: cell-based; conditions: HEK-Blue cells overexpressing human TLR8, R848 15.9 μM, 22 hour incubation
T2 construct: host or cells: HEK-Blue cells
T2 sequence (Q9NR97 27-1041): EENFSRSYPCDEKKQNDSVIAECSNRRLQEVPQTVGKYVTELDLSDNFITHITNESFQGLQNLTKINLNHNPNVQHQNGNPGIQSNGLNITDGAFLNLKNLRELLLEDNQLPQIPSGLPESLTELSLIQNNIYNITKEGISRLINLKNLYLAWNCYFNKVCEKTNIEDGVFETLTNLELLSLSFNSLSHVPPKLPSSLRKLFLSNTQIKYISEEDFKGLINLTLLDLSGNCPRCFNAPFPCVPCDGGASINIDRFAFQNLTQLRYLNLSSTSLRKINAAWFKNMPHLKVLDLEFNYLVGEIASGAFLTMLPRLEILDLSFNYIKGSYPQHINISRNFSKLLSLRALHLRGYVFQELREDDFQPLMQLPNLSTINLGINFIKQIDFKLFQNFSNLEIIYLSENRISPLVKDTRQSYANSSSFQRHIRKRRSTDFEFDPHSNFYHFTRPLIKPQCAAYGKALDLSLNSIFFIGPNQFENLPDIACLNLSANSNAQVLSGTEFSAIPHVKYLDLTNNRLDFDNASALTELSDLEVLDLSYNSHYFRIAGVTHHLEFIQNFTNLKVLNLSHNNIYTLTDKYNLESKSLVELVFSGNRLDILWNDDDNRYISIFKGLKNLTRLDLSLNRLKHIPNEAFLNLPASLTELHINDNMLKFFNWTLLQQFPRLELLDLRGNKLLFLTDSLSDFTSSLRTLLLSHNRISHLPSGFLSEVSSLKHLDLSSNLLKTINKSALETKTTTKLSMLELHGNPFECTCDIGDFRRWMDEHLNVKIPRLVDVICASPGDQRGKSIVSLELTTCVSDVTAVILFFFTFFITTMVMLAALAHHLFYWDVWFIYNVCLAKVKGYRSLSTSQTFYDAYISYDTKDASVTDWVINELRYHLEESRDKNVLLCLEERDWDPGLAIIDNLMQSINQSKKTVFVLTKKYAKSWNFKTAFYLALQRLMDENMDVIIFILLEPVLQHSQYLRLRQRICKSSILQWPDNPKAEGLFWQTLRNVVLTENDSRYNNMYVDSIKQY
Procedure, shortened: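 HEK-Blue cells overexpressing human TLR7, TLR8 or TLR9 carry a SEAP reporter driven by NF-κB/AP-1 sites. Compounds (0.05 nM–50 μM) were preincubated 30 min at room temperature, then cells were stimulated with gardiquimod 7.5 μM (TLR7), R848 15.9 μM (TLR8) or ODN2006 5 nM (TLR9) for 22 h at 37 °C.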

Q: With `Cc1cc2c(cc1-c1cc(C)c3ncnn3c1)[nH]c(=O)n2[C@H]1CCCN(C2COC2)C1` [Example 14, (S)-6-methyl-5-(8-methyl-[1,2,4]triazolo[1,5-a]pyridin-6-yl)-1-(1-(oxetan-3-yl)piperidin-3-yl)-1,3-dihydro-2H-benzo[d]imidazol-2-one] as the compound, how does the IC50 [1] read?
A: 787 nM

Q: What about the IC50 [2] of the same compound?
A: 155 nM

Q: What does the source list for `CCC(CC)CN[C@H]1CC[C@@H](n2c(=O)[nH]c3cc(-c4cn5ncnc5c(C)c4C)c(C(C)C)cc32)CC1` [Example 198]?
A: IC50 [1]: 4.92 nM; IC50 [2]: 0.15 nM

Q: Which IC50 [1] does the source give for `CCc1cc2c(cc1-c1cc(OC)c3ncnn3c1)[nH]c(=O)n2[C@@H]1CCCN(C2CCCOC2)C1` (stereo partly drawn) [Example 215, 6-ethyl-5-(8-methoxy-[1,2,4]triazolo[1,5-a]pyridin-6-yl)-1-((3R)-1-(tetrahydro-2H-pyran-3-yl)piperidin-3-yl)-1,3-dihydro-2H-benzo[d]imidazol-2-one] here?
A: 13.4 nM

Q: And the IC50 [2]?
A: 13.7 nM

Q: Which results are given for `CCc1cc2c(cc1-c1cc(OC)c3ncnn3c1)[nH]c(=O)n2[C@@H]1CCCN(CC(C)C)C1` [Example 177, (R)-6-ethyl-1-(1-isobutylpiperidin-3-yl)-5-(8-methoxy-[1,2,4]triazolo[1,5-a]pyridin-6-yl)-1,3-dihydro-2H-benzo[d]imidazol-2-one]?
A: IC50 [1]: 1.07 nM; IC50 [2]: 4.34 nM

Q: What does the source list for `CCN1CCC[C@@H](n2c(=O)[nH]c3cc(-c4cc(C)c5ncnn5c4)c(C)cc32)C1` [Example 16, (R)-1-(1-ethylpiperidin-3-yl)-6-methyl-5-(8-methyl-[1,2,4]triazolo[1,5-a]pyridin-6-yl)-1,3-dihydro-2H-benzo[d]imidazol-2-one]?
A: IC50 [1]: 17 nM; IC50 [2]: 31.4 nM

Q: For `COc1cc(-c2cc3[nH]c(=O)n([C@H]4CC[C@H](N(CC5CC5)CC5CC5)CC4)c3cc2C(C)C)cn2ncnc12` [Example 206, 1-((1r,4s)-4-(bis(cyclopropylmethyl)amino)cyclohexyl)-6-isopropyl-5-(8-methoxy-[1,2,4]triazolo[1,5-a]pyridin-6-yl)-1,3-dihydro-2H-benzo[d]imidazol-2-one], which IC50 [1] is on record?
A: 1.3 nM

Q: What about the IC50 [2] of the same compound?
A: 0.57 nM

Q: `CCN[C@H]1CC[C@@H](n2c(=O)[nH]c3cc(-c4cn5ncnc5c(C)c4C)c(C(C)C)cc32)CC1` [Example 189, 5-(7,8-dimethyl-[1,2,4]triazolo[1,5-a]pyridin-6-yl)-1-((1s,4s)-4-(ethylamino)cyclohexyl)-6-isopropyl-1,3-dihydro-2H-benzo[d]imidazol-2-one] was tested. Which IC50 [1] did it give?
A: 9.82 nM

Q: What about the IC50 [2] of the same compound?
A: 3.11 nM

Q: `COc1cc(-c2cc3[nH]c(=O)n(C4CCC(N5CC(O)(C(F)(F)F)C5)CC4)c3cc2C(C)C)cn2ncnc12` (single isomer, unassigned) [Example 242, 1-(4-(3-hydroxy-3-(trifluoromethyl)azetidin-1-yl)cyclohexyl)-6-isopropyl-5-(8-methoxy-[1,2,4]triazolo[1,5-a]pyridin-6-yl)-1,3-dihydro-2H-benzo[d]imidazol-2-one] was tested. Which IC50 [1] did it give?
A: 10.4 nM

Q: What about the IC50 [2] of the same compound?
A: 1.12 nM

Q: For `COc1cc(-c2cc3[nH]c(=O)n([C@@H]4CCCN(CC5CCCC5)C4)c3cc2C(C)C)cn2ncnc12` [Example 211, (R)-1-(1-(cyclopentylmethyl)piperidin-3-yl)-6-isopropyl-5-(8-methoxy-[1,2,4]triazolo[1,5-a]pyridin-6-yl)-1,3-dihydro-2H-benzo[d]imidazol-2-one], which IC50 [1] is on record?
A: 0.05 nM

Q: What about the IC50 [2] of the same compound?
A: 0.05 nM

Q: What does the source list for `COc1cc(-c2cc3[nH]c(=O)n([C@H]4CCCN(CC(N)=O)C4)c3cc2C(C)C)cn2ncnc12` [Example 220, (S)-2-(3-(6-isopropyl-5-(8-methoxy-[1,2,4]triazolo[1,5-a]pyridin-6-yl)-2-oxo-2,3-dihydro-1H-benzo[d]imidazol-1-yl)piperidin-1-yl)acetamide]?
A: IC50 [1]: 244 nM; IC50 [2]: 100 nM

Q: For `CCc1cc2c(cc1-c1cc(OC)c3ncnn3c1)[nH]c(=O)n2[C@@H]1CCCN(C)C1` [Example 174, (R)-6-ethyl-5-(8-methoxy-[1,2,4]triazolo[1,5-a]pyridin-6-yl)-1-(1-methylpiperidin-3-yl)-1,3-dihydro-2H-benzo[d]imidazol-2-one], which IC50 [1] is on record?
A: 1.14 nM

Q: And the IC50 [2]?
A: 1.39 nM

Q: `COc1cc(-c2cc3[nH]c(=O)n([C@@H]4CCCN(C5CCOC5)C4)c3cc2C(C)C)cn2ncnc12` (stereo partly drawn) [Example 216, 6-isopropyl-5-(8-methoxy-[1,2,4]triazolo[1,5-a]pyridin-6-yl)-1-((3R)-1-(tetrahydrofuran-3-yl)piperidin-3-yl)-1,3-dihydro-2H-benzo[d]imidazol-2-one] was tested. Which IC50 [1] did it give?
A: 14.6 nM

Q: And the IC50 [2]?
A: 26.4 nM

Q: Which results are given for `COc1cc(-c2cc3[nH]c(=O)n([C@@H]4CCCN(C5CCCOC5)C4)c3cc2C(C)C)cn2ncnc12` (single isomer, unassigned) [Example 219]?
A: IC50 [1]: 0.05 nM; IC50 [2]: 0.15 nM

Q: How did the IC50 [1] turn out when `COc1cc(-c2cc3[nH]c(=O)n([C@@H]4CCCN(C5CCCOC5)C4)c3cc2C(C)C)cn2ncnc12` (single isomer, unassigned) [Example 218] was run?
A: 5.33 nM

Q: What about the IC50 [2] of the same compound?
A: 5.19 nM
